According to PubChem BioAssay (NCI):
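GI50: concentration for 50% inhibition of growth. TGI denotes the concentration required for complete inhibition of growth.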

Columns and labels:
Assay in all cases: growth of human tumour cells (NCI), 384-well format
[1] = test system: HL-60(TB) leukemia
[2] = test system: T-47D breast
[3] = test system: NCI-H226 lung
[4] = test system: NCI-H322M lung
[5] = test system: HOP-62 NSCLC
[6] = test system: TK-10 renal
[7] = test system: A498 renal
[8] = test system: NCI/ADR-RES ovarian
[9] = test system: SNB-75 CNS
[10] = test system: COLO 205 colon
[11] = test system: NCI-H460 NSCLC
[12] = test system: MOLT-4 leukemia
[13] = test system: 786-0 renal
[14] = test system: DU-145 prostate
[15] = test system: UACC-62 melanoma
[16] = test system: LOX IMVI melanoma
[17] = test system: OVCAR-4 ovarian
[18] = test system: SF-295 CNS
[19] = test system: M14 melanoma
[20] = test system: CCRF-CEM leukemia
[21] = test system: CAKI-1 renal
[22] = test system: MDA-MB-468 breast
[23] = test system: NCI-H522 lung
[24] = test system: IGROV1 ovarian
[25] = test system: RXF 393 renal
[26] = test system: HCT-15 colon
[27] = test system: MDA-MB-231 breast
[28] = test system: UO-31 renal
[29] = test system: MCF7 breast
[30] = test system: HCC-2998 colon
[31] = test system: OVCAR-8 ovarian
[32] = test system: KM12 colon
[33] = test system: SR leukemia
[34] = test system: HCT-116 colon
[35] = test system: K-562 leukemia
[36] = test system: HOP-92 NSCLC
[37] = test system: SK-MEL-28 melanoma
[38] = test system: EKVX NSCLC
[39] = test system: BT-549 breast
[40] = test system: OVCAR-5 ovarian
[41] = test system: SF-539 CNS
[42] = test system: MDA-MB-435 melanoma
[43] = test system: HT29 colon
[44] = test system: SK-MEL-5 melanoma
[45] = test system: HS 578T breast
[46] = test system: SK-MEL-2 melanoma
[47] = test system: UACC-257 melanoma

Work on Cc1cc(C)c(CNC(=O)c2cc(-c3ccc(CN4CCOCC4)cc3)cc3c2cnn3C2CCCC2)c(=O)[nH]1 yielded a GI50 [1] of 4.13 µM, a TGI [1] of 12.6 µM and a GI50 [2] of 0.986 µM. The TGI [2] was 10.6 µM, the GI50 [3] was 12.9 µM and the TGI [3] was 25.9 µM. The GI50 [4] was 12.1 µM, the TGI [4] was 24.8 µM and the GI50 [5] was 6.39 µM. The TGI [5] was 17.4 µM, the GI50 [6] was 0.968 µM and the TGI [6] was 21.9 µM. For the same compound, the GI50 [7] was 3.92 µM, the TGI [7] was 15.4 µM and the GI50 [8] was 11.6 µM. For the same compound, the TGI [8] was 24 µM, the GI50 [9] was 7.97 µM and the TGI [9] was 21.2 µM. For the same compound, the GI50 [10] was 8.25 µM, the TGI [10] was 20.5 µM and the GI50 [11] was 7.72 µM. For the same compound, the TGI [11] was 20.5 µM, the GI50 [12] was 3.02 µM and the TGI [12] was 7.94 µM. For the same compound, the GI50 [13] was 5.82 µM, the TGI [13] was 16.9 µM and the GI50 [14] was 13.5 µM. It also gave a TGI [14] of 27.6 µM, a GI50 [15] of 12.3 µM and a TGI [15] of 24.9 µM. The GI50 [16] was 7.45 µM, the TGI [16] was 20.7 µM and the GI50 [17] was 12.9 µM. It also gave a TGI [17] of 25.8 µM, a GI50 [18] of 12 µM and a TGI [18] of 24.6 µM. The GI50 [19] was 6.87 µM, the TGI [19] was 17.6 µM and the GI50 [20] was 3.42 µM. For the same compound, the TGI [20] was 8.99 µM, the GI50 [21] was 9.04 µM and the TGI [21] was 22.2 µM. The GI50 [22] was 0.0189 µM, the TGI [22] was 0.0459 µM and the GI50 [23] was 15.3 µM. It also gave a TGI [23] of 28.7 µM, a GI50 [24] of 1.02 µM and a TGI [24] of 25 µM. For the same compound, the GI50 [25] was 5.49 µM, the TGI [25] was 15.8 µM and the GI50 [26] was 3.03 µM. The TGI [26] was 11.6 µM, the GI50 [27] was 8.35 µM and the TGI [27] was 21.4 µM. It also gave a GI50 [28] of 5.87 µM, a TGI [28] of 20.6 µM and a GI50 [29] of 6.19 µM. For the same compound, the TGI [29] was 17.8 µM, the GI50 [30] was 6.61 µM and the TGI [30] was 17.7 µM. The GI50 [31] was 11 µM, the TGI [31] was 23.3 µM and the GI50 [32] was 8.88 µM. The TGI [32] was 21.7 µM, the GI50 [33] was 2.41 µM and the TGI [33] was 5.85 µM. The GI50 [34] was 7.13 µM, the TGI [34] was 19.5 µM and the GI50 [35] was 4.84 µM. It also gave a TGI [35] of 16.5 µM, a GI50 [36] of 6.29 µM and a TGI [36] of 17.1 µM. It also gave a GI50 [37] of 9.62 µM, a TGI [37] of 21.9 µM and a GI50 [38] of 3.41 µM. The TGI [38] was 21.6 µM, the GI50 [39] was 8.98 µM and the TGI [39] was 22.1 µM. The GI50 [40] was 13.1 µM, the TGI [40] was 26 µM and the GI50 [41] was 6.86 µM. For the same compound, the TGI [41] was 19.8 µM, the GI50 [42] was 12 µM and the TGI [42] was 25.3 µM. For the same compound, the GI50 [43] was 2.3 µM, the TGI [43] was 5.14 µM and the GI50 [44] was 5.47 µM. For the same compound, the TGI [44] was 13.9 µM, the GI50 [45] was 2.92 µM and the TGI [45] was 7.44 µM. It also gave a GI50 [46] of 13 µM, a TGI [46] of 25.7 µM and a GI50 [47] of 2.23 µM. The TGI [47] was 4.96 µM.
